PubChem BioAssay (NCI)
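All cell lines were grown in 96-well plates and treated with compound for 48 hours. GI50 is the concentration that inhibits growth by half. TGI is the concentration that stops growth completely.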

Tests used:
Experiment in all cases: NCI tumour cell line growth inhibition, 48 h
NCI-H522 lung = test system: NCI-H522 lung
OVCAR-8 ovarian = test system: OVCAR-8 ovarian
SW-620 colon = test system: SW-620 colon
HL-60(TB) leukemia = test system: HL-60(TB) leukemia
MOLT-4 leukemia = test system: MOLT-4 leukemia
UACC-257 melanoma = test system: UACC-257 melanoma
OVCAR-3 ovarian = test system: OVCAR-3 ovarian
SNB-19 CNS = test system: SNB-19 CNS
786-0 renal = test system: 786-0 renal
SF-295 CNS = test system: SF-295 CNS
NCI/ADR-RES ovarian = test system: NCI/ADR-RES ovarian
OVCAR-4 ovarian = test system: OVCAR-4 ovarian
HCT-15 colon = test system: HCT-15 colon
LOX IMVI melanoma = test system: LOX IMVI melanoma
NCI-H460 lung = test system: NCI-H460 lung
NCI-H226 lung = test system: NCI-H226 lung
HS 578T breast = test system: HS 578T breast
SK-OV-3 ovarian = test system: SK-OV-3 ovarian
EKVX NSCLC = test system: EKVX NSCLC
UACC-62 melanoma = test system: UACC-62 melanoma
DU-145 prostate = test system: DU-145 prostate
K-562 leukemia = test system: K-562 leukemia
SK-MEL-28 melanoma = test system: SK-MEL-28 melanoma
OVCAR-5 ovarian = test system: OVCAR-5 ovarian
A549 NSCLC = test system: A549 NSCLC
ACHN renal = test system: ACHN renal
SF-268 CNS = test system: SF-268 CNS
T-47D breast = test system: T-47D breast
SR leukemia = test system: SR leukemia
HCT-116 colon = test system: HCT-116 colon
SK-MEL-5 melanoma = test system: SK-MEL-5 melanoma
U251 CNS = test system: U251 CNS
IGROV1 ovarian = test system: IGROV1 ovarian
SK-MEL-2 melanoma = test system: SK-MEL-2 melanoma
SN12C renal = test system: SN12C renal
KM12 colon = test system: KM12 colon
SNB-75 CNS = test system: SNB-75 CNS
BT-549 breast = test system: BT-549 breast
CAKI-1 renal = test system: CAKI-1 renal
TK-10 renal = test system: TK-10 renal
HOP-92 NSCLC = test system: HOP-92 NSCLC
HOP-62 NSCLC = test system: HOP-62 NSCLC
PC-3 prostate = test system: PC-3 prostate
RPMI-8226 leukemia = test system: RPMI-8226 leukemia
M14 melanoma = test system: M14 melanoma
UO-31 renal = test system: UO-31 renal
MDA-MB-435 = test system: MDA-MB-435
COLO 205 colon = test system: COLO 205 colon
MDA-MB-231 breast = test system: MDA-MB-231 breast

For `Nc1cc(O)ccc1N=Nc1ccc(-c2nc3ccccc3[nH]2)cc1`, the GI50 (NCI-H522 lung) was 34.2 µM, the TGI (NCI-H522 lung) was over 100 µM and the GI50 (OVCAR-8 ovarian) was 10.7 µM. For the same compound, the TGI (OVCAR-8 ovarian) was 52.5 µM, the GI50 (SW-620 colon) was 52.9 µM and the TGI (SW-620 colon) was over 100 µM. It also gave a GI50 (HL-60(TB) leukemia) of 44.6 µM, a TGI (HL-60(TB) leukemia) of over 100 µM and a GI50 (MOLT-4 leukemia) of over 100 µM. It also gave a TGI (MOLT-4 leukemia) of over 100 µM, a GI50 (UACC-257 melanoma) of 65.3 µM and a TGI (UACC-257 melanoma) of over 100 µM. For the same compound, the GI50 (OVCAR-3 ovarian) was 13.7 µM, the TGI (OVCAR-3 ovarian) was 49.6 µM and the GI50 (SNB-19 CNS) was over 100 µM. The TGI (SNB-19 CNS) was over 100 µM, the GI50 (786-0 renal) was 77.2 µM and the TGI (786-0 renal) was over 100 µM. It also gave a GI50 (SF-295 CNS) of 16.8 µM, a TGI (SF-295 CNS) of over 100 µM and a GI50 (NCI/ADR-RES ovarian) of over 100 µM. For the same compound, the TGI (NCI/ADR-RES ovarian) was over 100 µM, the GI50 (OVCAR-4 ovarian) was over 100 µM and the TGI (OVCAR-4 ovarian) was over 100 µM. It also gave a GI50 (HCT-15 colon) of 37.2 µM, a TGI (HCT-15 colon) of over 100 µM and a GI50 (LOX IMVI melanoma) of 7.6 µM. It also gave a TGI (LOX IMVI melanoma) of 37.1 µM, a GI50 (NCI-H460 lung) of 10.2 µM and a TGI (NCI-H460 lung) of 35.8 µM. For the same compound, the GI50 (NCI-H226 lung) was over 100 µM, the TGI (NCI-H226 lung) was over 100 µM and the GI50 (HS 578T breast) was 72.1 µM. The TGI (HS 578T breast) was over 100 µM, the GI50 (SK-OV-3 ovarian) was over 100 µM and the TGI (SK-OV-3 ovarian) was over 100 µM. For the same compound, the GI50 (EKVX NSCLC) was 21 µM, the TGI (EKVX NSCLC) was 92.1 µM and the GI50 (UACC-62 melanoma) was 17.1 µM. The TGI (UACC-62 melanoma) was over 100 µM, the GI50 (DU-145 prostate) was over 100 µM and the TGI (DU-145 prostate) was over 100 µM. For the same compound, the GI50 (K-562 leukemia) was 23 µM, the TGI (K-562 leukemia) was over 100 µM and the GI50 (SK-MEL-28 melanoma) was 34.8 µM. The TGI (SK-MEL-28 melanoma) was over 100 µM, the GI50 (OVCAR-5 ovarian) was over 100 µM and the TGI (OVCAR-5 ovarian) was over 100 µM. The GI50 (A549 NSCLC) was over 100 µM, the TGI (A549 NSCLC) was over 100 µM and the GI50 (ACHN renal) was 34 µM. For the same compound, the TGI (ACHN renal) was over 100 µM, the GI50 (SF-268 CNS) was 3.07 µM and the TGI (SF-268 CNS) was 22.8 µM. The GI50 (T-47D breast) was 29.9 µM, the TGI (T-47D breast) was over 100 µM and the GI50 (SR leukemia) was 68.5 µM. It also gave a TGI (SR leukemia) of over 100 µM, a GI50 (HCT-116 colon) of 41.2 µM and a TGI (HCT-116 colon) of over 100 µM. For the same compound, the GI50 (SK-MEL-5 melanoma) was 38.8 µM, the TGI (SK-MEL-5 melanoma) was over 100 µM and the GI50 (U251 CNS) was 30.3 µM. For the same compound, the TGI (U251 CNS) was over 100 µM, the GI50 (IGROV1 ovarian) was 19.7 µM and the TGI (IGROV1 ovarian) was over 100 µM. For the same compound, the GI50 (SK-MEL-2 melanoma) was 45.1 µM, the TGI (SK-MEL-2 melanoma) was over 100 µM and the GI50 (SN12C renal) was 53.5 µM. It also gave a TGI (SN12C renal) of over 100 µM, a GI50 (KM12 colon) of 5.07 µM and a TGI (KM12 colon) of over 100 µM. The GI50 (SNB-75 CNS) was over 100 µM, the TGI (SNB-75 CNS) was over 100 µM and the GI50 (BT-549 breast) was over 100 µM. It also gave a TGI (BT-549 breast) of over 100 µM, a GI50 (CAKI-1 renal) of 3.51 µM and a TGI (CAKI-1 renal) of 82.3 µM. The GI50 (TK-10 renal) was 16.1 µM, the TGI (TK-10 renal) was over 100 µM and the GI50 (HOP-92 NSCLC) was 0.67 µM. The TGI (HOP-92 NSCLC) was 15.5 µM, the GI50 (HOP-62 NSCLC) was over 100 µM and the TGI (HOP-62 NSCLC) was over 100 µM. The GI50 (PC-3 prostate) was 20.4 µM, the TGI (PC-3 prostate) was over 100 µM and the GI50 (RPMI-8226 leukemia) was 30.2 µM. It also gave a TGI (RPMI-8226 leukemia) of 94.6 µM, a GI50 (M14 melanoma) of over 100 µM and a TGI (M14 melanoma) of over 100 µM. It also gave a GI50 (UO-31 renal) of 30.5 µM, a TGI (UO-31 renal) of over 100 µM and a GI50 (MDA-MB-435) of 17.1 µM. For the same compound, the TGI (MDA-MB-435) was 73.5 µM, the GI50 (COLO 205 colon) was 34.9 µM and the TGI (COLO 205 colon) was over 100 µM. The GI50 (MDA-MB-231 breast) was 68.7 µM and the TGI (MDA-MB-231 breast) was over 100 µM.
